Laboratory results published in ChEMBL document CHEMBL1158166, “DNA binding and biological studies of some novel water-soluble polymer-copper(II)-phenanthroline complexes” (2008).

Tests used:
Conditions in all cases: read-out: IZ
[1] = system: Bacillus subtilis; assay: Antibacterial activity against Bacillus subtilis at 1 ug/disc after 24 to 48 hrs
[2] = system: Escherichia coli; assay: Antibacterial activity against Escherichia coli at 1 ug/disc after 24 to 48 hrs
[3] = system: Staphylococcus aureus; assay: Antibacterial activity against Staphylococcus aureus at 1 ug/disc after 24 to 48 hrs
[4] = system: Pseudomonas aeruginosa; assay: Antibacterial activity against Pseudomonas aeruginosa at 1 ug/disc after 24 to 48 hrs
[5] = system: Candida albicans; assay: Antifungal activity against Candida albicans at 10 ug/disc after 24 to 48 hrs; type: functional

SMILES | zone of inhibition at 1 µg/disc [1] [mm] | zone of inhibition at 1 µg/disc [2] [mm] | zone of inhibition at 1 µg/disc [3] [mm] | zone of inhibition at 1 µg/disc [4] [mm] | zone of inhibition at 10 µg/disc [5] [mm]
O=C(O)c1cn(C2CC2)c2cc(N3CCNCC3)c(F)cc2c1=O [CIPROFLOXACIN] | 17 | 16 | 16 | 17 | –
Clc1ccccc1C(c1ccccc1)(c1ccccc1)n1ccnc1 [CLOTRIMAZOLE] | – | – | – | – | 12
